Where two headings read alike, the source gives them in different places.
Legend:
[1] = biological target: PRMT5/MEP50 complex (Homo sapiens (Human), UniProt O14744); assay: PRMT5/MEP50 HotSpot methyltransferase assay (with 100 nM MTA); assay type: biochemical; conditions: histone H2A substrate, 1 μM 3H-SAM
Experimental: The assay used recombinant full-length histone H2A as the substrate of PRMT5. Enzymatic transfer of the tritiated methyl group from S-adenosyl-L-[methyl-3H]methionine (3H-SAM) to the histone H2A protein generated a radiolabeled histone H2A by measuring in a scintillation counter to determine the activity of PRMT5 enzyme in the presence and absence of compound. The assay reactions were conducted in the presence of 100 nM MTA. Briefly, compounds were solubilized in 100% DMSO at the highest concentration of 10 mM. […] Control samples lacking compound, PRTM5/MEP50 complex or various reaction components also were prepared and processed in parallel with compound test samples. SAH was used as a positive control for assay validation. To measure PRMT5 inhibitory activity, 1 nM PRTM5/MEP50 complex was preincubated with test compound in assay buffer containing 5 μM full-length histone H2A for 15 minutes at room temperature. The enzymatic reaction was initiated by adding 1 μM 3H-SAM (final concentration) and the mixture was incubated at 30° C. for 1 hour. The reaction was stopped and transferred to filter paper for detection. The amount of tritiated H2A in each sample was determined using a scintillation counter. The IC50 value for each compound was calculated from each 10-point dose-response curve for samples using GraphPad Prism software.

[2] = system: HCT116 parental (wild type) cells; assay: HCT116 cell proliferation assay (CTG), parental cells; assay type: cell-based, human; conditions: Cell Titer-Glo
Experimental: (§1) Control samples were analyzed in parallel.
(§2) On Day 0, 150 HCT116 parental or HCT116 homozygous MTAP knockout cells were seeded in 96-well plates in McCoy's 5A medium containing 10% fetal bovine serum and pen/strep. And the cells were incubated overnight at 37° C. and 5% CO2.
(§3) On Day 1, cells were treated with 9-point serial dilution of compound, using a top concentration of 50 μM, 1:5 serial dilution steps and, a DMSO-only control. And cells were incubated for 6 days.
(§4) On Day 7, cell viability was measured using a CTG assay Kit (Cell Titer-Glo; Promega, catalog no.: G7573) in accordance with the manufacturer's instructions. Assays plates were read on a EnVision™ Multilabel Reader using the Ultra-Sensitive luminescence model. The data were analyzed by GraphPad Prism 5.0 software, and the dose-effect curve was obtained by fitting the data using nonlinear S-curve regression, from which the IC50 value was calculated.

[3] = system: HCT116 homozygous MTAP knockout cells; assay: HCT116 cell proliferation assay (CTG), MTAP knockout cells; assay type: cell-based, human; conditions: Cell Titer-Glo
Experimental: as §1, §2, §3, §4

[4] = biological target: PRMT5/MEP50 (Homo sapiens (Human), UniProt O14744); assay: MTase-Glo methyl transferase assay (PRMT5 inhibition); assay type: biochemical; conditions: 50 nM PRMT5/MEP50, 25 μM SAM, 5 μM Histone H4 peptide (1-21), read-out: IC50 for PRMT5 inhibiting
Experimental: The PRMT5 inhibitory activity of test compounds was determined using the MTase-Glo™ assay (Promega), which monitors the product (S-adenosyl homocysteine or SAH) of methyltransferase reactions. The PRMT5 MTase-Glo assays were conducted in a 384-well white ProxiPlate (PerkinElmer, catalog no.: 6008280) in a total volume of 12 μL. The PRMT5 enzymatic reaction (in 4 μL) contained 50 nM PRMT5/MEP50 (Reaction Biology Corp, catalog no.: HMT-22-148), 25 μM S-adenosyl methionine (SAM, Promega), 5 μM Histone H4 peptide (1-21) (BPS Bioscience, catalog no.: 52018-2) and five-fold serially diluted compounds in a reaction buffer of 50 mM Tris (pH 8.0), 50 mM NaCl, 0.01% Tween 20, 0.01% BSA, and 1 mM DTT. The test compounds were pre-incubated with PRMT5/MEP50 and Histone H4 peptide for 20 minutes at room temperature before the addition of SAM to initiate the PRMT5 reaction. The reaction was allowed to proceed for 1 hour at 37° C. and was terminated by 2 μL of 3× MTase-Glo™ Reagent (Promega) and 150 μM EPZ015666 (Selleck, catalog no.: 1616391-65-1). After a 30-minute incubation at room temperature, 6 μL of MTase-Glo™ Detection Solution (Promega) was added and the plate was incubated at room temperature for an additional 30 minutes. The light signal corresponding to the amount of SAH produced by the PRMT5 reaction was subsequently measured using an Envision multimode reader (PerkinElmer). IC50 and Ki values were obtained by analyzing dose-response curves using GraphPad Prism.

[5] = Liver microsome metabolic stability (LMS) assay, mouse
[6] = in vitro; conditions: human, microsomes
[7] = In vivo pharmacokinetics assay in mice via IV and PO; parameters: species or system ICR mice; conditions: for Cmax: read-out: Cmax; for AUC0-t: read-out: AUC0-t
Experimental: Pharmacokinetics assay for test compounds was performed in mice via IV and PO.
Test compound solution was prepared on the day of administration.
Solvent: IV+PO: 5% DMSO+10% Soultol+85% H2O or saline
Species: ICR mice; SPF level.
Source: Beijing Vital River Laboratory Animal Technology Co., Ltd.
Animal selection: Males. No random grouping
Weighed before dosing, calculated dosage according to body weight. For Groups 1-3, the drug was administered intravenously or intragastrically. For Group 4, the drug administered intragastrically.
For Groups 1-3, at 0.083 h, 0.25 h, 0.5 h, 1 h, 2 h, 4 h, 6 h, 8 h, 24 h, after administration. For Group 4, at 2 h and 4 h after administration.
Blood was collected through the cheeks. For each sample, about 0.05 mL of blood was collected and was added heparin sodium or EDTA-2K as anticoagulant, and was placed on wet ice.
The blood samples were collected and placed on ice and was centrifuged within 1 hour (centrifugation: 6000 g, 3 minutes, 2-8° C.) to separate plasma. Plasma samples were stored in a −80° C. refrigerator prior to analysis.
The pharmacokinetic parameters were calculated using Phoenix WinNonlin8.2.0 based on the blood concentration data at different time points, and AUC0-t, AUC0-∞, MRT0-∞, Cmax, Tmax, and T1/2 and mean values and standard deviations thereof were provided.

[8] = biological target: hERG potassium ion channel (Homo sapiens (Human), UniProt Q12809); assay: hERG potassium ion channel inhibition assay (automated patch-clamp, CHO-hERG cells); assay type: cell-based; conditions: Qpatch, highest test concentration 40.00 μM
Experimental: Drug-hERG interaction was measured by automated patch-clamp methods, with cisapride as positive control.
1.1 CHO-hERG cells were cultured in 175 cm^2 culture bottle. After the cell density grew to 60-80%, the culture medium was removed, washed with 7 mL of phosphate buffered saline (PBS), and then digested with 3 mL Detachin.
1.2 After the digestion was complete, 7 mL culture solution was added for neutralization, and then centrifuged, the clear solution was sucked, and 5 mL culture solution was added for re-suspension to ensure the cell density was 2˜5×10^6/mL.
The process of single-cell high-impedance sealing and whole-cell pattern formation was all automatically completed by Qpatch instrument. After obtaining whole-cell recording mode, the cell was pinching at −80 millivolts. Before giving a 5-second +40 millivolt depolarization stimulus, a 50-millisecond pre-voltage of −50 millivolts was given first, and then repolarized to −50 millivolts for 5 seconds. Go back to −80 millivolts. This voltage stimulation was applied every 15 seconds, recorded for 2 minutes, then extracellular fluid was given and recorded for 5 minutes, and then the administration process began. The concentration of test compound was given from the lowest test concentration for 2.5 minutes per test concentration. After continuous administration of all concentrations, the positive control 3 μM cisapride was given. At least 2 cells were tested for each concentration (n≥2).
4.1 The compound mother liquor was diluted with DMSO, and 10 μL compound stock solution was added to 20 μL DMSO solution, which was continuously 3-fold diluted to 6 DMSO-concentrations.
4.2 4 μL of test compounds in 6 DMSO-concentrations were added to 396 μL extracellular solution and were 100-fold diluted to 6 intermediate concentrations. Then, 80 μL of test compounds in 6 intermediate concentrations were added to 320 μL extracellular solution and were 5-fold diluted to the final concentration to be tested.
4.3 The highest test concentration was 40.00 μM, and six test concentrations were 40.00, 13.33, 4.44, 1.48, 0.49, 0.16 μM, respectively.
4.5 Entire dilution process for test compound preparation was performed by Bravo instrument.
The experimental data were analyzed by GraphPad Prism 5.0 software.

[9] = human, microsomes
[10] = in vitro; conditions: cynomolgus monkey, microsomes
[11] = Liver microsome metabolic stability (LMS) assay, human; conditions: human, microsomes
[12] = in vitro; conditions: dog, microsomes
[13] = rat, microsomes, 1 μM
[14] = Homo sapiens, HCT-116, 6 days treatment
[15] = male, ICR, mouse, plasma, PO 30 mg/kg
[16] = male, ICR, mouse, plasma, PO 50 mg/kg

Sequence of PRMT5/MEP50 complex (O14744 whole entry, species assumed): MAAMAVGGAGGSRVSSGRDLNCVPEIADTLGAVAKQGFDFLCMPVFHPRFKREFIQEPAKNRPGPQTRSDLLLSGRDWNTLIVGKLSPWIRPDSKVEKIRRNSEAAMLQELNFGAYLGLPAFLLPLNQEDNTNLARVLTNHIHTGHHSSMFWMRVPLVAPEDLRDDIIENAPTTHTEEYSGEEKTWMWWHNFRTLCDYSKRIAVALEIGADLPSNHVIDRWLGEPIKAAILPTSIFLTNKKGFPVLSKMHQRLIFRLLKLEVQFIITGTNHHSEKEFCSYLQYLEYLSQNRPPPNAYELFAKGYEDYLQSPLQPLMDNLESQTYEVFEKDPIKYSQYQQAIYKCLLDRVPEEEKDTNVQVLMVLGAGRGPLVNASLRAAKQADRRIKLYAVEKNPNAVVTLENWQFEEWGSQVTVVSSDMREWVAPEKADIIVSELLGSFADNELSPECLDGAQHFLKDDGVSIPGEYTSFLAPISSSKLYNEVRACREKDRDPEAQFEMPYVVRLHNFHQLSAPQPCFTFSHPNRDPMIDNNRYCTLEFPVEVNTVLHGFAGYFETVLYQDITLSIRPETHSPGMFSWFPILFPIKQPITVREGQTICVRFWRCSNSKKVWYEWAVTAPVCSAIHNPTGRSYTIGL
Sequence of PRMT5/MEP50 complex (Q9BQA1 whole entry partner, species assumed): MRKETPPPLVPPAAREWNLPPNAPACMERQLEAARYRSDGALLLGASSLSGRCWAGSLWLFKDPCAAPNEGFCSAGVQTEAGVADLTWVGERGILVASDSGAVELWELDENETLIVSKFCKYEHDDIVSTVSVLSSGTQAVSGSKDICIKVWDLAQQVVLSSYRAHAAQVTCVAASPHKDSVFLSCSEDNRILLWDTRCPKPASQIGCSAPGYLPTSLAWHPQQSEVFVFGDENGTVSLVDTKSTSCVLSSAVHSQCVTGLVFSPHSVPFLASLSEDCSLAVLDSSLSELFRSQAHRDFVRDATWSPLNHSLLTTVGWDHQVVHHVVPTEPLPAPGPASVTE
Sequence of PRMT5/MEP50 (O14744 whole entry): as the sequence (O14744 whole entry, species assumed) above
Sequence of PRMT5/MEP50 (Q9BQA1 whole entry partner): as the sequence (Q9BQA1 whole entry partner, species assumed) above
Sequence of hERG potassium ion channel (Q12809 whole entry): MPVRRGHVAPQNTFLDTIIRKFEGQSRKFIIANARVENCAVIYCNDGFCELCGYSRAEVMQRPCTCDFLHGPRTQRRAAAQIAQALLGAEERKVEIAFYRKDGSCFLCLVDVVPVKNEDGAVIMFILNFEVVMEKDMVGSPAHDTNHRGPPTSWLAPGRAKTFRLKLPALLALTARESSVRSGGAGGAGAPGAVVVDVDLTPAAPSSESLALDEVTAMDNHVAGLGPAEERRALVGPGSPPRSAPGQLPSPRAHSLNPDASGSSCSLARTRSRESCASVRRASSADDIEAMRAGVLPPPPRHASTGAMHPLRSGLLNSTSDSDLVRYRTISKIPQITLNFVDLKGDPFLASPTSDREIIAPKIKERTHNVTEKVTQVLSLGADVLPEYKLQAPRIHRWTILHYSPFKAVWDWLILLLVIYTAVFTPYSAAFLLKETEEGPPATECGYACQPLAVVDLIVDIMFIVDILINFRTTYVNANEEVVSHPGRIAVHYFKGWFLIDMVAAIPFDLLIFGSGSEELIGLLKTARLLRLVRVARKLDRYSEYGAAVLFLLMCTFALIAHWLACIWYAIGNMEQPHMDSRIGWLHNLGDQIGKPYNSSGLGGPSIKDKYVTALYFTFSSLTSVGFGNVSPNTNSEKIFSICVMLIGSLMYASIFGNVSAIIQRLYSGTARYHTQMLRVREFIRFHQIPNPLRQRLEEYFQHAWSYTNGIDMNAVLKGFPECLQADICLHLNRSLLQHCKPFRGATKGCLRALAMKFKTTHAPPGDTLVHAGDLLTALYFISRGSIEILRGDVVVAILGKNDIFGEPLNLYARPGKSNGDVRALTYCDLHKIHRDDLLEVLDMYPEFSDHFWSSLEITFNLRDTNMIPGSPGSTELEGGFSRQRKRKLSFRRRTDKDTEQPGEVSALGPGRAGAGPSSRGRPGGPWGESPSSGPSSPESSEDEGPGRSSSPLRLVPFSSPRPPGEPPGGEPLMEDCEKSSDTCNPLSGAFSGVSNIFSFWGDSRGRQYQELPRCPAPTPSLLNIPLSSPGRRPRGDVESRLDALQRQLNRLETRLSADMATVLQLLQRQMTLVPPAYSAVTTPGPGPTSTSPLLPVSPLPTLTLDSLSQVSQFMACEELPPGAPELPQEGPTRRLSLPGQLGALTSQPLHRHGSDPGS

Compound	IC50 [1] [nM]	IC50 ([2]; 6 days treatment) [nM]	IC50 ([3]; 6 days treatment) [nM]	IC50 [4] [nM]	IC50 [2, 14] [nM]	IC50 [3, 14] [nM]	IC50 [8] [nM]	also measured
Cc1ncc2c(N)nc3ccc(C(=O)N(Cc4ccc(C(F)(F)F)cn4)[C@H](C)c4ncccn4)cc3n12 [Compound 7]	91	961	77	91	–	–	–	–
Cc1ncn2c1c(N)nc1ccc(C(=O)N(Cc3ccc(C(F)(F)F)cn3)[C@H](C)c3ncccn3)cc12 [Compound 8]	198	146	97	104	–	–	–	–
Cc1nc(C)n2c1c(N)nc1ccc(C(=O)N(Cc3ccc(C(F)(F)F)cn3)[C@H](C)c3ncccn3)cc12 [Compound 9]	321	1160	72	101	–	–	–	–
CN(C(=O)c1cc2c(cn1)nc(N)c1cncn12)[C@@H]1COc2cc(C(F)(F)F)ccc21 [Compound 14]	–	–	–	47	6270	70	17900	half-life at 1 μM ([5]; mouse, liver microsomes): 2.2 h; half-life at 1 μM [6]: > 2.42 h; C8 h ([7]; PO 30 mg/kg, plasma): 3833 ng/mL; C24 h ([7]; PO 30 mg/kg, plasma): 574 ng/mL; C8 h ([7]; PO 50 mg/kg, plasma): 6927 ng/mL; C24 h ([7]; PO 50 mg/kg, plasma): 615 ng/mL; Cmax ([7]; male, ICR, mouse, PO 30 mg/kg, plasma): 7500 ng/mL; Cmax ([7]; male, ICR, mouse, PO 50 mg/kg, plasma): 9920 ng/mL; clearance ([7]; male, ICR, mouse, plasma, IV 1.0 mg/kg): 7.62 mL/min/kg; half-life [7, 15]: 5.96 h; AUC0-t [7, 15]: 81.1 µg·h/mL; half-life [7, 16]: 5 h; AUC0-t [7, 16]: 123 µg·h/mL
CN(C(=O)c1ccc2nc(N)c3cncn3c2c1)C1COc2cc(C(F)(F)F)ccc21 (centres unmarked) [Compound 15]	–	5340	37	16	–	–	5580	–
CN(C(=O)c1cc2c(cn1)nc(N)c1cncn12)[C@@H]1CC(F)(F)c2cc(C(F)(F)F)ccc21 [Compound 26]	–	6590	64	34	–	–	13600	T1/2 of LMS, M ([5]; mouse liver microsome 0.5 mg protein/mL, 1 μM, NADPH): 1.98 h; T1/2 of LMS, H [9]: 2.32 h; Cl ([7]; IV 1.0 mg/kg): 10.5 mL/min/kg
[2H]C([2H])([2H])N(C(=O)c1cc2c(cn1)nc(N)c1cncn12)C1COc2cc(C(F)(F)F)c(F)cc21 (centres unmarked) [Compound 35]	–	–	–	87	3210	70	–	–
[2H]C([2H])([2H])N(C(=O)c1cc2c(cn1)nc(N)c1cncn12)C1COc2cc(C(F)(F)F)cc(F)c21 (centres unmarked) [Compound 36]	–	–	–	53	9620	110	–	–
[2H]C([2H])([2H])N(C(=O)c1ccc2nc(N)c3cncn3c2c1)C1COc2cc(OC(F)F)ccc21 (centres unmarked) [Compound 37]	–	–	–	29	13800	234	–	–
O=C(O)Cc1ccccc1Nc1c(Cl)cccc1Cl [Ref. 5, Diclofenac]	–	–	–	–	–	–	–	CLint scaled at 1 μM [10]: < 13 mL/min/kg; half-life at 1 μM [10]: > 2.42 h; microsomal CLint at 1 μM [10]: < 9.6 µL/min/mg; CLint scaled at 1 μM [11]: 185 mL/min/kg; CLint scaled at 1 μM [12]: < 13.8 mL/min/kg; half-life at 1 μM [12]: > 2.42 h; microsomal CLint at 1 μM [12]: < 9.6 µL/min/mg; half-life at 1 μM [6]: 0.112 h; microsomal CLint at 1 μM [6]: 206 µL/min/mg; CLint (liver) R [13]: 233.1 mL/min/kg

Reference: patent publication US20240262835A1, “PRMT5 INHIBITING COMPOUNDS AND USES THEREOF” (ANTENGENE DISCOVERY LIMITED, priority 2023, published 2024)
